{
  "source": "patent US11225460B2",
  "about": "“Pyrrolidineamide derivatives and uses thereof” (SUNSHINE LAKE PHARMA CO., LTD., priority 2019, dated 2022)",
  "key": {"[1]": {"test": "Pharmacokinetic evaluation after intravenous or gavage administration in rats", "type": "in vivo, SD rats", "description": "The LC-MS/MS system comprises Agilent 1200 series vacuum degassing furnace, quaternary pumps, well-plate autosampler, thermostatted column compartment, the API4000Qtrap Triple Quadrupole Mass Spectrometer with an electrospray ionization (ESI) source. Quantitative analysis was carried out using MRM mode. The parameters for MRM transitions are in Table 2.\nAnalysis was carried out on waters xbridge C18 (2.1×50 mm, […] column, 0.5 μL of sample), the analytic conditions are mobile phases cosisting of water+2 mM ammonium formate+0.1% formic acid (Phase A) and methanol+2 mM ammonium formate+0.1% formic acid (Phase B). The flow rate was 0.4 mL/min. And the gradient of Mobile phase was in Table 3.\nEach animal species was divided into two groups: one was administered intravenously and the other was administered intragastrically. The compounds disclosed herein were administered in form of a solution containing 5% DMSO+5% Kolliphor HS15+90% Saline. For the group of intravenous administration, the administration dose was 1 mg/kg, and vein blood samples (0.3 ml) were collected at the time points of 0.083, 0.25, 0.5, 1.0, 2.0, 4.0, 6.0, 8.0 and 24 h after drug administration, then plasma solutions were collected by centrifuging each blood sample at 3000 rpm or 4000 rpm for 10 minutes and kept at −20° C. or −70° C. For the group of intragastric administration, the administration dose was 5 mg/kg, and vein blood samples (0.3 mL) were collected at the time points of 0.25, 0.5, 1.0, 2.0, 4.0, 6.0, 8.0 and 24 h after drug administration, then plasma solutions were collected by centrifuging each blood sample at 3000 rpm or 4000 rpm for 10 minutes and kept at −20° C. or −70° C.\n20 μL of plasma was blended with 120 μl, 50 ng/ml propranolol standard water solution, then the mixture was extracted with 1.0 mL methyl tert-butyl ether (MTBE), 0.7 mL of supernatant was dried by blow with nitrogen and then dissolved again with 220 μL methanol water (methanol/water (v/v)=1/1). LC-MS/MS method was used to detect the concentration of the target compounds, and […] was used to calculate the pharmacokinetic parameters."}, "[2]": {"target": "T1, potassium channel of hERG (Homo sapiens, UniProt Q12809)", "T1 construct": "expressed in transfected cells; host or cells: HEK-293 cells", "T1 sequence (Q12809 whole entry)": "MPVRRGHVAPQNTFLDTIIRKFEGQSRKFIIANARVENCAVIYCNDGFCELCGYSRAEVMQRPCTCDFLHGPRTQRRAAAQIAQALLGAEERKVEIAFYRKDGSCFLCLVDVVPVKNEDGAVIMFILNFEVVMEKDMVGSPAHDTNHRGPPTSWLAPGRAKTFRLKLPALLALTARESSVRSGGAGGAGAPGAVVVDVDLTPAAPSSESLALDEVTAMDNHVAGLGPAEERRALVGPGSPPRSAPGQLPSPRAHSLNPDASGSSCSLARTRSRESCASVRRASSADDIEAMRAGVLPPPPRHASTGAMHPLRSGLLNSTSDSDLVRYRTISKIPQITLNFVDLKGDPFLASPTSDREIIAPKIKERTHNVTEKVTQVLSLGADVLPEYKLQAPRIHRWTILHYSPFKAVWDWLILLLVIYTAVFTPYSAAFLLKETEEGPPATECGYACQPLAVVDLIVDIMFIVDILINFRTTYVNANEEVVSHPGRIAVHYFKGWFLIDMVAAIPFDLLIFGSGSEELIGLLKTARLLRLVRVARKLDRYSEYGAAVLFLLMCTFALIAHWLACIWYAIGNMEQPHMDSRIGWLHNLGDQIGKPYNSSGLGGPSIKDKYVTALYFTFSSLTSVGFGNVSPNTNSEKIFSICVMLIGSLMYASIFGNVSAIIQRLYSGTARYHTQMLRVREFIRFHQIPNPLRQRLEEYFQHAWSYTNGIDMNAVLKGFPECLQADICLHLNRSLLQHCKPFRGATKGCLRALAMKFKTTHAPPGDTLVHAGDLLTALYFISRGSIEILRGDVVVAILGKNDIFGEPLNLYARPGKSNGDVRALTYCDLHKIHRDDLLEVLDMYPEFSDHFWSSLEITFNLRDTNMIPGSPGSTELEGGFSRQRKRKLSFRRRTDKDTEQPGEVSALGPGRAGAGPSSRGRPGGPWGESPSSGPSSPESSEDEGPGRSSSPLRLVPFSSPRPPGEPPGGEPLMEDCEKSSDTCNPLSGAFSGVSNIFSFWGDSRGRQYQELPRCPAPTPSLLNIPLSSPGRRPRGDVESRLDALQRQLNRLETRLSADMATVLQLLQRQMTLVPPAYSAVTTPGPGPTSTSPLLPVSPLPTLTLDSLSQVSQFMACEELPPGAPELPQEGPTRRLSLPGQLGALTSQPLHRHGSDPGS", "test": "Inhibitory effect on potassium channel of hERG by electrophysiological manual patch clamp", "type": "cell-based", "details": "HEK-293 cells overexpressed potassium channel of hERG, 0.37-30.00 μM, read-out: IC50 acting on hERG potassium channel", "description": "The cell line was derived from HEK-293 cells overexpressed potassium channel of hERG.\nThe cells were cultured in a5% CO2 incubator at 37° C. When the cell density reached 80% of the culture dish, the cells were pre-cleaned with phosphate buffer (PBS), and then digested with trypsin/EDTA for 2-3 minutes. and then the cell culture medium was added to stop digestion. The cells were blew with a pipette gently and transferred to a centrifugal tube. The cells were centrifuged for 3 minutes at 1,000 rpm. The supernatant was poured out. The cell culture medium was added and blew gently to mix the cells well. Then the cells were transferred to a culture dish for subculture, or the cells were dropped onto a circular slide and placed in a culture dish until cell adherence for experiment. […]\nhERG potassium channel current was recorded by using the whole cell recording mode. Firstly, the extracellular fluid (about 2 milliliters per minute) was perfused and recorded continuously, and waiting the current stabilization (Run-Down was less than 5% in 5 minutes). […] Then the extracellular fluid containing the tested compounds was perfused (the concentration of the tested compounds were 0.37 μM, 1.10 μM, 3.30 μM, 10.00 μM and 30.00 μM, respectively) and current value was recorded continuously until the inhibitory effect of the tested compounds on hERG current reached a stable state. […]"}, "[3]": {"details": "SD, rat, plasma, iv, i.v group, 1 mg/kg"}, "[4]": {"details": "SD, rat, plasma, po, i.g group, 5 mg/kg"}},
  "data": [
    {"compound": "NC(=O)[C@@H]1C[C@H](F)CN1Cc1ccc(OCc2cccc(F)c2)cc1", "note": "[Example 1, (2S,4S)-4-fluoro-1-(4-(3-fluorobenzyloxy)benzyl)pyrrolidine-2-formamide]", "values": [
      {"measurement": "AUC(0-inf)", "setting": "[1]; [3]", "value": 507, "unit": "ng·h/mL"},
      {"measurement": "Cmax", "setting": "[1]; [3]", "value": 690, "unit": "ng/mL"},
      {"measurement": "MRT inf", "setting": "[1]; [3]", "value": 41.6, "unit": "min"},
      {"measurement": "Tmax", "setting": "[1]; [3]", "value": 4.98, "unit": "min"},
      {"measurement": "AUC(0-inf)", "setting": "[1]; [4]", "value": 1400, "unit": "ng·h/mL"},
      {"measurement": "AUC(0-t)", "setting": "[1]; [4]", "value": 1400, "unit": "ng·h/mL"},
      {"measurement": "Cmax", "setting": "[1]; [4]", "value": 1000, "unit": "ng/mL"},
      {"measurement": "MRT inf", "setting": "[1]; [4]", "value": 64.8, "unit": "min"},
      {"measurement": "Tmax", "setting": "[1]; [4]", "value": 20, "unit": "min"},
      {"measurement": "half-life", "setting": "[1]; [4]", "value": 33.9, "unit": "min"},
      {"measurement": "F", "setting": "[1]; i.g group, 5 mg/kg", "value": 55.2, "unit": "%"},
      {"measurement": "AUClast", "setting": "[1]; i.v group, 1 mg/kg", "value": 505, "unit": "ng·h/mL"},
      {"measurement": "Cl", "setting": "[1]; i.v group, 1 mg/kg", "value": 32.9, "unit": "mL/min/kg"},
      {"measurement": "T1/2", "setting": "[1]; i.v group, 1 mg/kg", "value": 40.2, "unit": "min"},
      {"measurement": "IC50", "setting": "[2]", "value": "> 30", "unit": "µM"}
    ]},
    {"compound": "NC(=O)[C@@H]1C[C@H](F)CN1Cc1ccc(OCc2cccc(F)c2)cc1F", "note": "[Example 3, (2S,4S)-4-fluoro-1-(2-fluoro-4-(3-fluorobenzyloxy)benzyl)pyrrolidine-2-formamide]", "values": [
      {"measurement": "AUC(0-inf)", "setting": "[1]; [3]", "value": 582, "unit": "ng·h/mL"},
      {"measurement": "AUC(0-t)", "setting": "[1]; [3]", "value": 582, "unit": "ng·h/mL"},
      {"measurement": "Cmax", "setting": "[1]; [3]", "value": 681, "unit": "ng/mL"},
      {"measurement": "MRT inf", "setting": "[1]; [3]", "value": 46.7, "unit": "min"},
      {"measurement": "Tmax", "setting": "[1]; [3]", "value": 4.98, "unit": "min"},
      {"measurement": "clearance", "setting": "[1]; [3]", "value": 28.7, "unit": "mL/min/kg"},
      {"measurement": "half-life", "setting": "[1]; [3]", "value": 42.7, "unit": "min"},
      {"measurement": "AUC(0-inf)", "setting": "[1]; [4]", "value": 1550, "unit": "ng·h/mL"},
      {"measurement": "AUC(0-t)", "setting": "[1]; [4]", "value": 1520, "unit": "ng·h/mL"},
      {"measurement": "Cmax", "setting": "[1]; [4]", "value": 700, "unit": "ng/mL"},
      {"measurement": "MRT inf", "setting": "[1]; [4]", "value": 127, "unit": "min"},
      {"measurement": "Tmax", "setting": "[1]; [4]", "value": 37.5, "unit": "min"},
      {"measurement": "half-life", "setting": "[1]; [4]", "value": 73.8, "unit": "min"},
      {"measurement": "F", "setting": "[1]; i.g group, 5 mg/kg", "value": 53.3, "unit": "%"}
    ]}
  ]
}
